Experimental data: ChEMBL document CHEMBL1201862, “PubChem BioAssay data set” (2004)
Active and inactive are the calls of the source. Cut-off read from the data, not from the text of the source, for most assays here: actives have a measured EC50 and inactives only a lower limit.

Key:
[1] = luciferase reporter signal suppression in cells – H4 neuroglioma cells, luminescence, dose response (AID 1990); format: functional, cell-based
[2] = luciferase reporter signal reduction – luminescence, H4-C neuroglioblastoma cells, dose response (AID 2458); format: functional, cell-based;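 note: H4 neuroglioblastoma cells stably carrying a luciferase reporter gene fusion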
[3] = system: BJ; assay: BJ-TERT fibroblast viability loss – cell-based, RAS-independent, luminescence, dose response (AID 1933); format: functional; conditions: Homo sapiens
[4] = cells; format: functional, cell-based
[5] = alpha-synuclein stem-loop luciferase translation blockers – H4 neuroglioma cells, luminescence, confirmation (AID 1988); format: functional, cell-based
[6] = system: BJ; assay: cells; format: functional, cell-based; conditions: Homo sapiens
[7] = system: BJ; assay: BJ-TERT-LT-ST fibroblast viability loss – cell-based, RAS-independent, luminescence, dose response (AID 1935); format: functional; conditions: Homo sapiens;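 note: BJ fibroblasts immortalized with TERT plus LT and ST oncogenes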
[8] = DRD fibroblast viability loss – cell-based, non-viral oncogenic, luminescence, dose response (AID 1934); format: functional; conditions: Homo sapiens
[9] = alpha-synuclein stem-loop translation blockers – luminescence, H4 neuroglioblastoma cells, dose confirmation, confirmation (AID 2454); format: functional, cell-based;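 note: H4 neuroglioblastoma cells carrying an alpha-synuclein 5'UTR luciferase reporter; potency for inhibition of the luciferase signal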
[10] = system: Jurkat; assay: blockers of NF-kB activation in T cells – Jurkat, luciferase reporter, luminescence, B- and T-cell, dose response (AID 489004); format: functional, cell-based; conditions: Homo sapiens;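 note: NF-kB luciferase reporter Jurkat cells stimulated with PMA plus ionomycin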
[11] = HEK-293T viability loss, compound-treated – cell-based, uHTS hits, cytotoxicity control for B/T-cell NF-kB inhibitor project, dose response (AID 489019); format: functional;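 note: IC50 reflects cytotoxicity as loss of cell viability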
[12] = target: Paired box protein Pax-8 (Homo sapiens, UniProt Q06710); assay: PAX8 transcriptional activity inhibition in RMG-I – RMG-I cells, luciferase, cherry-pick, dose response (AID 687027); format: functional, cell-based;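 note: luciferase reporter driven by Pax8 target thyroperoxidase promoter measured by SteadyGlo luminescence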
Paired box protein Pax-8, sequence (Q06710 whole entry): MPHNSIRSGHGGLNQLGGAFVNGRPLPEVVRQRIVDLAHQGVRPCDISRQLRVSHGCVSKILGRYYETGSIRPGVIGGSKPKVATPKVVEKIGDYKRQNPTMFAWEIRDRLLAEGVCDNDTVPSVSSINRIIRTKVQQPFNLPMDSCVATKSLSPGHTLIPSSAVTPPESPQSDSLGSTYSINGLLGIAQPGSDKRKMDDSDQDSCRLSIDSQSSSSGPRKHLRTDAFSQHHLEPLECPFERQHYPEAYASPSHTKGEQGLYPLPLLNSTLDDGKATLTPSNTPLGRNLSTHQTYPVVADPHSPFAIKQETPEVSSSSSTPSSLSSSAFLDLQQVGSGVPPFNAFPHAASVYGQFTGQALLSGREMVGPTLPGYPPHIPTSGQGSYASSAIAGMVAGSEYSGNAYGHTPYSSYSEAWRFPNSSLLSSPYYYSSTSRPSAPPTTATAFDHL

[13] = target: T1, Cytochrome P450 1A2 (Homo sapiens, UniProt P05177);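 note: PubChem cytochrome P450 panel assay, CYP1A2 panel member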
T1 sequence (P05177 whole entry): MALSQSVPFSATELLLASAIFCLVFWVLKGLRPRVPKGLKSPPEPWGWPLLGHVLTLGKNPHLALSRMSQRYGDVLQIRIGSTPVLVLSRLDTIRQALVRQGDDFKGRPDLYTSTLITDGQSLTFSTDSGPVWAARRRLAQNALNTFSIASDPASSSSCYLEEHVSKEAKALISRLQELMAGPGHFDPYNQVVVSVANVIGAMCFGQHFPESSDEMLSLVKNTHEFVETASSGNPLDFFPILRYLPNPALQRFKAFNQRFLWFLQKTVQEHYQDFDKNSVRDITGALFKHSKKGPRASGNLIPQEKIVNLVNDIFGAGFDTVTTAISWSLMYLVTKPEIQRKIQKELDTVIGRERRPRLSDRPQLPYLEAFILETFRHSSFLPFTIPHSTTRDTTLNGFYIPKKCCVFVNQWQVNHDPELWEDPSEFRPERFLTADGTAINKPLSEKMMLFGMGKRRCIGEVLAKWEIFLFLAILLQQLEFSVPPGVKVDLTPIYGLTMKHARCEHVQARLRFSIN

[14] = target: T2, ORF 73 (Human herpesvirus 8, UniProt O40947); assay: KSHV LANA DNA-binding disruption – biochemical, fluorescence polarization, cherry-picked samples, dose response (AID 504725); set-up: species or system Human gammaherpesvirus 8;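 note: fluorescence polarization of a labeled DNA duplex reporting LANA DNA binding; potency is for inhibitors that block LANA binding to the DNA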
T2 sequence (O40947 whole entry): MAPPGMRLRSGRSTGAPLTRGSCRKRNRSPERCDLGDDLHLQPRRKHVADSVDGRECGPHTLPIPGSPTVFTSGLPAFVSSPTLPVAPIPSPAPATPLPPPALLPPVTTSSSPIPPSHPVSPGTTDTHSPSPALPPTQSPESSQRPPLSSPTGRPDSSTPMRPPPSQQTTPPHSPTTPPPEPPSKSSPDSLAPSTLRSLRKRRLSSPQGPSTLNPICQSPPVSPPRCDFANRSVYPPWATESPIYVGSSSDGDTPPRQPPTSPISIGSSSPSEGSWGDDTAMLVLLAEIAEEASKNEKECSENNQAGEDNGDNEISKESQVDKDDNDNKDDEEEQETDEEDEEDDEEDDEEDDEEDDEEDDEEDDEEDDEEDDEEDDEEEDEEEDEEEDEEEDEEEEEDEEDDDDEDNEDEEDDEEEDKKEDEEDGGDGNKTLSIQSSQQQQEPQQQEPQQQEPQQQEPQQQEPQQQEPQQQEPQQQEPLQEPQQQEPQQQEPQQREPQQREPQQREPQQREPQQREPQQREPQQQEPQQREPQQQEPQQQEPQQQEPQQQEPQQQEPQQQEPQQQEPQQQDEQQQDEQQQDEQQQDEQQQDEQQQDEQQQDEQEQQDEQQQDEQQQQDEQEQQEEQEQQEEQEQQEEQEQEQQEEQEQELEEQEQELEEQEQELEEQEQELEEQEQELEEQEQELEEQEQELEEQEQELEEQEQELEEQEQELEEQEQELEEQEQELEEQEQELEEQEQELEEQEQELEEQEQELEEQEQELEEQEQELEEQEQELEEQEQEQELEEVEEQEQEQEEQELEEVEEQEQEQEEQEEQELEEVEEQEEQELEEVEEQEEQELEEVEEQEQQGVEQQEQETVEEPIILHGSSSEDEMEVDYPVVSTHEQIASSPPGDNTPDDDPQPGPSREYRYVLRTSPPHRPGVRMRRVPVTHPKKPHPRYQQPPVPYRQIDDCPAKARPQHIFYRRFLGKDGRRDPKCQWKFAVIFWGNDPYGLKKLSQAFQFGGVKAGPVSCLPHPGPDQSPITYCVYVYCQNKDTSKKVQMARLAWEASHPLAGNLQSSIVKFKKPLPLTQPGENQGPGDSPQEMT

[15] = target: Keap1/Nrf2 (Homo sapiens, UniProt Q14145); assay: disruptors of Keap1 binding to Nrf2 peptide – biochemical, fluorescence polarization, cherry-picked samples, dose response (AID 588683)
Keap1/Nrf2, sequence (Q16236 whole entry): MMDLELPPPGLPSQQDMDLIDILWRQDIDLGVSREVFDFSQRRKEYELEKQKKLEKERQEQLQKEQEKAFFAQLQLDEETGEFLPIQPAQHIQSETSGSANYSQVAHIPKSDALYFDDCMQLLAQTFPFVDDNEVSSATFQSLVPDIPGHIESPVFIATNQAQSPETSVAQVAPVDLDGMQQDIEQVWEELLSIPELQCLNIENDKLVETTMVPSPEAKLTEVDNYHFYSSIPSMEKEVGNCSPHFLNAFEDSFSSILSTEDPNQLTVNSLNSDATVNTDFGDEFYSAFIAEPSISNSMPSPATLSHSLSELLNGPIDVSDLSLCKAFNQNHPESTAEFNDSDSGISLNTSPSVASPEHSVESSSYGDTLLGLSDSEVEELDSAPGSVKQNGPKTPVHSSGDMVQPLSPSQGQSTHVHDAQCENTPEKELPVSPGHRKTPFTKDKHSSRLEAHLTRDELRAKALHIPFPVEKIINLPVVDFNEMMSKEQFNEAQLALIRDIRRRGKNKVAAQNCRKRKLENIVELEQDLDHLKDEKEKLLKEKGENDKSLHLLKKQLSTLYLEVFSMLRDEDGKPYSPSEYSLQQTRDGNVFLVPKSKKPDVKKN
Keap1/Nrf2, sequence (Q14145 whole entry): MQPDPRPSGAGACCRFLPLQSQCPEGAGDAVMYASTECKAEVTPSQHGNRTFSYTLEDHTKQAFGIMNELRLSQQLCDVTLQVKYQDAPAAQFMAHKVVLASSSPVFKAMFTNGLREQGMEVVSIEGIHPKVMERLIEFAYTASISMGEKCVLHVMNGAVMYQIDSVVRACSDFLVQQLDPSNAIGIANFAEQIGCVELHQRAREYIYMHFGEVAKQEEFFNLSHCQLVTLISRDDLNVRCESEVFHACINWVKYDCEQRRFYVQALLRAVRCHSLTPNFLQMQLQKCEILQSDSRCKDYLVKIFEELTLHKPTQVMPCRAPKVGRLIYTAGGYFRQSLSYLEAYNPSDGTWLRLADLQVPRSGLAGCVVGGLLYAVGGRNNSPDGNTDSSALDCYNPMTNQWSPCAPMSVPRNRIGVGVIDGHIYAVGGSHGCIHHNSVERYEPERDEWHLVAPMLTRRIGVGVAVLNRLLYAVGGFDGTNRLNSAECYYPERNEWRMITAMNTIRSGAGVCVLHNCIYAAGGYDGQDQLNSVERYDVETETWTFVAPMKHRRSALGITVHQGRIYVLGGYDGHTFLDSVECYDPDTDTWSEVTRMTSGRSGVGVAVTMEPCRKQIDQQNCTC

[16] = target: Beta-adrenergic receptor kinase 1 (Homo sapiens, UniProt P25098); assay: blockers of aptamer binding to GRK2 – biochemical, flow cytometry beads, FAM-aptamer, powder set 1, dose response (AID 588720)
Beta-adrenergic receptor kinase 1, sequence (P25098 whole entry): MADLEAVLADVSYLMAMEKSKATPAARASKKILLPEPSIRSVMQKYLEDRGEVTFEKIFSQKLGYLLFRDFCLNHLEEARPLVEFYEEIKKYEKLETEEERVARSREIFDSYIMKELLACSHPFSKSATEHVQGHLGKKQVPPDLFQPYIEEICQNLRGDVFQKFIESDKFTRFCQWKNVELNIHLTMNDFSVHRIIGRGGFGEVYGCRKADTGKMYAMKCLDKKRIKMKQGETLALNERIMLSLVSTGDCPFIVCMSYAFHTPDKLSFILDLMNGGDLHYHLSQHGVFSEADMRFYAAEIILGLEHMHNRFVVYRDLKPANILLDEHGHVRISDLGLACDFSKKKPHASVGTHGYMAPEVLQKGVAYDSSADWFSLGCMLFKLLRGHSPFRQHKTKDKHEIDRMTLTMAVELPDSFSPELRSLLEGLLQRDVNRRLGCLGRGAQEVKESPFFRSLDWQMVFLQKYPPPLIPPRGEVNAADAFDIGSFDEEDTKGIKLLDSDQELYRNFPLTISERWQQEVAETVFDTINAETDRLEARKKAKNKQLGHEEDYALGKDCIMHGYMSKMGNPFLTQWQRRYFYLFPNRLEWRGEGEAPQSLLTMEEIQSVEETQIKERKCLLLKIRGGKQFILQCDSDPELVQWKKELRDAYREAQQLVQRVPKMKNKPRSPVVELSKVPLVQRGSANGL

O=C(c1ccc(Br)cc1)c1cc([N+](=O)[O-])ccc1N1CCCCC1
EC50 [1]: 623 nM (active) | EC50 [2]: 892 nM (active) | EC50 [3]: 697 nM (active) | EC50 [4]: 1490 nM (active) | EC50 [5]: < 100 nM (active) | EC50 [6]: 1120 nM (inconclusive) | EC50 [7]: 464 nM (active) | EC50 [8]: 694 nM (active) | EC50 [9]: > 12000 nM (inconclusive) | IC50 [10]: > 80000 nM (inactive) | IC50 [11]: > 80000 nM (inactive) | AC50 [12]: 2730 nM (active) | AC50 [13]: 2000 nM (inconclusive)

Cc1nc(Cl)c2c(n1)N=C1CCCC(O)=C1O2
AC50 [14]: 8800 nM (active) | AC50 [15]: 15100 nM (active)

O=C(CCS(=O)(=O)c1ccc(Br)cc1)NCCc1ccc(Cl)cc1
EC50 [16]: 7060 nM (active)
